From paper PMC4592236, “Pathogen- and Host-Directed Antileishmanial Effects Mediated by Polyhexanide (PHMB)” (PLoS Neglected Tropical Diseases, 2015) come the findings set out here.

Structures can show the parent of a compound that is named as a salt. Where two headings read alike, the source gives them in different places.

Data set [1] deals with L. major promastigotes. The experiment in a line: AlamarBlue assay against L. major promastigotes. Type of data set: cell-based, Leishmania major. The note with it: for IC50 (μM) promastigotes: Table 2, without dynasore. On the procedure: Cytotoxicities of the different compounds or formulations against mammalian cell (BMDM or 293T epithelial cells) and L. major promastigotes were determined as previously described. Briefly, 4 × 10^4 mammalian cells or 10 × 10^6 virulent L. major promastigotes (MHOM/IL/81/FE/BNI strain) in the log phase of growth were added to each well of 96-well plates and cultured with five increasing concentrations of each compound at 37°C or 27°C for 24 h, respectively. Standard antileishmanial drugs including amphotericin B (A2942), pentamidine isothionate (P0547) and paromomycin sulfate (P9297) from Sigma-Aldrich (Deisenhofen, Germany) and miltefosine (1-hexadecylphosphorylcholine) (Cayman Chemical Company, Ann Arbor, MI, USA) were used as positive controls. The AlamarBlue dye (Trinova Biochem GmbH, Giessen, Germany) was added to each well at 10% concentration and incubated for a further 48 h. The optical density (OD) was then measured by using Multiskan Ascent ELISA reader at a wavelength 550 nm and 630 nm. The OD value or % dye reduction is proportional to viable cell/parasite number and was used for IC50 calculation based on the intercept theorem.
(In general: The colour change of resazurin is a common sign of viable cells or microbes.)

In data set [2] the test system is intracellular L. major amastigotes. The experiment in a line: microbe, parasite or virus in culture. The note with it: for IC50: intracellular amastigotes in BMDM, luciferase; for IC50 (μM) amastigotes: Table 2, without dynasore, two independent experiments. The class given is cell-based, Leishmania major. On the procedure:
The assay is based on bioluminescence measurement of firefly luciferase, which catalyzes the formation of light from ATP and luciferin. The virulent luciferase-transgenic (Luc-tg) L. major strain containing a firefly luciferase reporter gene was maintained by continuous passage in female BALB/c mice and was grown in 96-well blood agar cultures at 27°C, 5% CO2, and 95% humidity. A luciferase-transgenic L. major strain was used to infect BMDM according to our recently established protocol. Briefly, BMDM numbers were adjusted to 2 × 10^5, cultured in 96-well plates and incubated for 4 h to allow adherence to the surface. The promastigote number was adjusted to 3 × 10^6 parasites per ml to achieve an infection rate of 1:15. Then, infection was made by discarding the supernatant of the cultured cells and replacing it with an equal volume of complete RPMI medium containing the promastigotes' suspension. After incubating the infected BMDM (37°C, 5% CO2) for 24 h to allow full differentiation of the promastigotes into amastigotes, the medium containing the extracellular parasites was removed and the wells were washed three times with the same RPMI medium. Five serial dilutions of each substance (1:5) in the same fresh RPMI medium were added to the infected BMDM in duplicate with the appropriate controls. After further 24 h of incubation at 37°C and 5% CO2, the infected BMDM were lysed with a luciferin-containing buffer (Britelite, PerkinElmer, Germany) and luminescence was measured with a luminescence plate reader, Victor X Light 2030 luminometer (PerkinElmer). The IC50 values of the compounds against intracellular amastigotes were calculated based on the intercept theorem, as previously described.

The test system of data set [3] is BMDM. Put plainly: AlamarBlue cytotoxicity assay, BMDM. Type of data set: cell-based, BALB/c mice. The settings on record: average of 3–6 independent experiments, read-out: IC50 BMDMs.
The test system of data set [4] is BMDM. The experiment in a line: Cytokine production by BMDM (ELISA). The class given is cell-based, BALB/c mice. The note with it: BMDM supernatants, 48 h. How it is done: BMDM were generated from female BALB/c mice as described above in cell culture. 1 × 10^6 BMDM were seeded in a final volume of 0.5 ml in 24-well plates, infected with L. major promastigotes at 15:1 parasite to BMDM ratio, washed and incubated at 37°C for 30 min in complete RPMI medium containing CpG ODN (15 μg/ml). PHMB, CpG ODN or PHMB/CpG ODN polyplexes were added to the pre-activated or control cells and further incubated for 48 h. The supernatants were collected and IL-6, IL-10, IL-4 or TNF-α (Biosciences, Wiesbaden, Germany) concentrations were measured by sandwich ELISA while IL-12p70 was measured by using the IL-12p70 ELISA Ready-SET-Go kit from eBioscience according to the suppliers' instructions.

The subject of data set [5] is BMDM. The experiment in a line: Cellular uptake by BMDM (flow cytometry). Type of data set: cell-based, BALB/c mice. The settings on record: pre-incubation with inhibitor 30 min, then 4 h. On the procedure: PI and YO-PRO-1 dyes (Life Technologies, Darmstadt, Germany) uptake by the promastigotes was measured by MACS Quant Analyzer (Miltenyi Biotec, Bergisch Gladbach, Germany), and used to indicate membrane integrity. […] L. major promastigotes were treated with 2 μM PHMB for indicated time points and then washed at 3,000 × g for 10 min. The samples were stained by incubating with PI or YO-PRO-1 dyes for 15 min in the dark at RT according to manufacturer’s instructions. The samples were then washed and a total of 100,000 events were immediately acquired by flow cytometry. Similarly, adherent BMDM cells were allowed to take-up fluorescent PHMB (PHMB-FITC conjugate) in the presence or absence of five different pharmacological inhibitors (cytochalasin D (C8273, used at 5 μg/ml), wortmannin (W1628, used at 12.85 μg/ml), chlorpromazine hydrochloride (C8138, used at 10 μg/ml), ikarugamycin (SML0188, used at 1 μM) and dynasore (D7693, used at 25.8 μg/ml), Sigma-Aldrich, Deisenhofen, Germany). PHMB (Polyhexamethylene biguanide; CAS# 27083-27-8; alternative chemical names: polyhexanide, polyamino propylbiguanide, Mw = 2780 g/mol) was provided by the laboratory of Dr. Liam Good and by Tecrea Ltd, London UK (www.tecrea.co.uk), at stock concentrations of 1 mg/ml and 200 mg/ml. […] The data were analyzed using FlowJo software (Tree Star Inc., CA, USA).
(Flow cytometry measures light scatter and fluorescence of single cells or particles in a stream.)

Data set [6] deals with L. major promastigotes. The experiment in a line: PHMB-FITC uptake into promastigotes (flow cytometry). Type of data set: cell-based, Leishmania major. The note with it: PHMB-FITC 0.35 μM.
Where [7] appears, read: Leishmania major, AlamarBlue, average of 3–6 independent experiments.
Where [8] appears, read: AlamarBlue, average of 3–6 independent experiments.
Where [9] appears, read: concentration of PHMB within polyplexes.
[10] abbreviates: concentration of PHMB within polyplexes, listed as Dynasore (80 μM).
Where [11] appears, read: with dynasore (80 μM), concentration of PHMB within polyplexes.

As to `C[C@@H]1[C@H](O)[C@@H](C)/C=C/C=C/C=C/C=C/C=C/C=C/C=C/[C@H](O[C@@H]2O[C@H](C)[C@@H](O)[C@H](N)[C@@H]2O)C[C@@H]2O[C@](O)(C[C@@H](O)C[C@@H](O)[C@H](O)CC[C@@H](O)C[C@@H](O)CC(=O)O[C@H]1C)C[C@H](O)[C@H]2C(=O)O` [Amphotericin B, amphotericin B], the half-maximal inhibitory concentration (IC50) in the data set with L. major promastigotes [1] (setting [7]) is 0.42 ± 0.5 µM; in data set [2] (Leishmania major), 0.099 ± 0.05 µM; with BMDM [3] (Mus musculus, BMDM), above 21 µM.
For the compound `NC[C@@H]1O[C@H](O[C@H]2[C@@H](O)[C@H](O[C@@H]3[C@@H](O)[C@H](N)C[C@H](N)[C@H]3O[C@H]3O[C@H](CO)[C@@H](O)[C@H](O)[C@H]3N)O[C@@H]2CO)[C@H](N)[C@@H](O)[C@@H]1O` [Paromomycin, paromomycin sulfate], the half-inhibitory concentration (IC50) in the data set on L. major promastigotes [1] (setting [7]) is above 500 µM; in data set [2] (Leishmania major) it was 1500 ± 112 µM; in the data set on BMDM [3] (Mus musculus, BMDM), above 900 µM.
Taken in the same sequence, the figures for `N=C(N)c1ccc(OCCCCCOc2ccc(C(=N)N)cc2)cc1` [Pentamidine, pentamidine isothionate] were 16.2 ± 3.1 µM, 6.38 ± 2.4 µM and 128 ± 24 µM.
With “CpG ODN: unmethylated cytosine-phosphate-guanine oligodeoxynucleotide 1668, sequence TCCATGACGTTCCTGATGCT (DNA, backbone not given here)”, the IC50 (in the data set on L. major promastigotes [1] (setting [8]); in data set [2]; in the data set on BMDM [3]) was above 150 µM each time. Moreover, in the data set with L. major promastigotes [1] (setting [8]), the IC50 promastigotes result is “did not show activity”. Also, the “cytokine production (IL-6, IL-10, IL-12)” value in the data set with BMDM [4] is “production of all cytokines tested increased with increasing doses”.
As to `O=C(N/N=C/c1ccc(O)c(O)c1)c1cc2ccccc2cc1O` [Dynasore, dynasore], the “IC50 (μM) promastigotes” value in the data set on L. major promastigotes [1] (setting [9]) is listed as “did not display cytotoxicity”; in the data set with L. major promastigotes [1] (setting [10]), “No activity”. Also, the “IC50 promastigotes + dynasore (μM)” value with L. major promastigotes [1] (setting [11]) was “No activity”. Also, the “IC50 (μM) amastigotes” value in data set [2] (setting [9]) is listed as “did not display cytotoxicity”; in data set [2] (setting [10]), “No activity”. The “IC50 amastigotes + dynasore (μM)” value in data set [2] (setting [11]) is on record as “No activity”. The “inhibition of PHMB-FITC uptake by BMDM” value in the data set on BMDM [5] is on record as 80%. Besides, in the data set on L. major promastigotes [6], the “inhibition of PHMB-FITC uptake into promastigotes” value is on record as “more than 98%”.
In the case of `CCCCCCCCCCCCCCCCOP(=O)([O-])OCC[N+](C)(C)C` [Miltefosine, 1-hexadecylphosphorylcholine], the IC50 in the data set on L. major promastigotes [1] (setting [7]) turned out to be 28.3 ± 5.2 µM; in data set [2] (Leishmania major) it was 54 ± 8.1 µM; with BMDM [3] (Mus musculus, BMDM), 75.6 ± 10.9 µM.

What is called IC50 is the point on the concentration scale where inhibition reaches its midpoint.
